From ChEMBL document CHEMBL1201862, “PubChem BioAssay data set” (2004)
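These data come from cells grown in 96-well plates and exposed to compound for 48 hours at five concentrations. GI50 is the concentration that inhibits growth by half.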 Activity calls are given as the source filed them. Rule as the data show it: active = GI50 up to about 1.1 µM and inactive = higher.

Experiments:
Experiment in all cases: NCI-60 cell line screen, 48 h
A549 = test system: A549
UACC-257 = test system: UACC-257
DU-145 = test system: DU-145
OVCAR-8 = test system: OVCAR-8
MDA-N = test system: MDA-N
HL-60 = test system: HL-60
EKVX = test system: EKVX
SW-620 = test system: SW-620
MDA-MB-231 = test system: MDA-MB-231
SF-268 = test system: SF-268
MCF7 = test system: MCF7
MOLT-4 = test system: MOLT-4
MDA-MB-435 = test system: MDA-MB-435
SN12C = test system: SN12C
IGROV-1 = test system: IGROV-1
SNB-75 = test system: SNB-75
SK-MEL-5 = test system: SK-MEL-5
HCC 2998 = test system: HCC 2998
LOX IMVI = test system: LOX IMVI

Compound | GI50 (A549) | GI50 (UACC-257) | GI50 (DU-145) | GI50 (OVCAR-8) | GI50 (MDA-N) | GI50 (HL-60) | GI50 (EKVX) | GI50 (SW-620) | GI50 (MDA-MB-231) | GI50 (SF-268) | GI50 (MCF7) | GI50 (MOLT-4) | GI50 (MDA-MB-435) | GI50 (SN12C) | GI50 (IGROV-1) | GI50 (SNB-75) | GI50 (SK-MEL-5) | GI50 (HCC 2998) | GI50 (LOX IMVI)
CCNC1=C(NC(=O)CCl)C(=O)c2ccccc2C1=O | 33.7 µM (inactive) | > 10 µM (inactive) | > 10 µM (inactive) | 20.1 µM (inactive) | 15.6 µM (inactive) | 34.1 µM (inactive) | 16 µM (inactive) | 25.8 µM (inactive) | 21.5 µM (inactive) | 18.1 µM (inactive) | 22.4 µM (inactive) | 18.2 µM (inactive) | 19.1 µM (inactive) | 17.9 µM (inactive) | > 10 µM (inactive) | > 10 µM (inactive) | 16.7 µM (inactive) | > 10 µM (inactive) | 
O=C1NC(=S)NC(=O)C1C(c1ccc([N+](=O)[O-])cc1)C1C(=O)NC(=S)NC1=O.c1ccncc1 | > 100 µM (inactive) | > 100 µM (inactive) | > 100 µM (inactive) | > 100 µM (inactive) | > 100 µM (inactive) | > 100 µM (inactive) | > 100 µM (inactive) | > 100 µM (inactive) | > 100 µM (inactive) |  | > 100 µM (inactive) | > 100 µM (inactive) | > 100 µM (inactive) | > 100 µM (inactive) | > 100 µM (inactive) |  | > 100 µM (inactive) |  | > 100 µM (inactive)
COc1cc2c[n+](C)c3c4cc(OC)c(OCc5ccccc5)cc4c(OCc4ccccc4)cc3c2cc1OC | 30 µM (inactive) | 2.9 µM (inactive) | 11.5 µM (inactive) | 6.85 µM (inactive) | 1.23 µM (inactive) |  | 38.5 µM (inactive) | 3.18 µM (inactive) | 5.02 µM (inactive) | 3.44 µM (inactive) | 3.93 µM (inactive) | 2.54 µM (inactive) | 1.74 µM (inactive) | 4.03 µM (inactive) | 1.69 µM (inactive) | 4.46 µM (inactive) | 2.08 µM (inactive) | 11.7 µM (inactive) | 5.3 µM (inactive)
O=c1[nH]nc(-c2ccccc2)n1-n1cccc1 | > 100 µM (inactive) | > 100 µM (inactive) | > 100 µM (inactive) | > 100 µM (inactive) | > 100 µM (inactive) |  | > 100 µM (inactive) | > 100 µM (inactive) | > 100 µM (inactive) | > 100 µM (inactive) | > 100 µM (inactive) | 35.6 µM (inactive) | > 100 µM (inactive) | > 100 µM (inactive) | > 100 µM (inactive) | > 100 µM (inactive) | > 100 µM (inactive) | > 100 µM (inactive) | > 100 µM (inactive)
O=S(=O)(c1ccccc1)N1CCCC(c2ccccc2)CC1 (centres undefined) | 27.2 µM (inactive) | 38.9 µM (inactive) | > 100 µM (inactive) | 37.2 µM (inactive) | 64.6 µM (inactive) | 9.75 µM (inactive) |  | 33 µM (inactive) | 30.4 µM (inactive) | 27.8 µM (inactive) | 24 µM (inactive) | 15.2 µM (inactive) | 82 µM (inactive) | 46 µM (inactive) | > 100 µM (inactive) | 30.8 µM (inactive) | 14.6 µM (inactive) | 23.9 µM (inactive) | 
COc1ccc2cc(C(=O)O)ccc2c1OC | > 100 µM (inactive) | > 100 µM (inactive) | 69.5 µM (inactive) | > 100 µM (inactive) | > 100 µM (inactive) | > 100 µM (inactive) |  | > 100 µM (inactive) | > 100 µM (inactive) | > 100 µM (inactive) | > 100 µM (inactive) | > 100 µM (inactive) | > 100 µM (inactive) | > 100 µM (inactive) | > 100 µM (inactive) | 43 µM (inactive) | > 100 µM (inactive) | > 100 µM (inactive) | 
CCOC(=O)C1=CC(C)(C(=O)OCC)Nc2c(nc(SC)[nH]c2=O)N1 (centres undefined) | > 10 µM (inactive) | > 10 µM (inactive) | > 10 µM (inactive) | > 10 µM (inactive) | > 10 µM (inactive) |  | > 10 µM (inactive) | > 10 µM (inactive) | > 10 µM (inactive) | > 10 µM (inactive) | > 10 µM (inactive) | > 10 µM (inactive) | > 10 µM (inactive) | > 10 µM (inactive) | > 10 µM (inactive) | > 10 µM (inactive) | > 10 µM (inactive) | > 10 µM (inactive) | > 10 µM (inactive)
CCOC(=O)/C(C#N)=C/N(CC)/N=C/c1ccccc1 | > 100 µM (inactive) | > 100 µM (inactive) | > 100 µM (inactive) | 81.3 µM (inactive) | > 100 µM (inactive) | > 100 µM (inactive) | > 100 µM (inactive) | > 100 µM (inactive) | > 100 µM (inactive) | > 100 µM (inactive) | > 100 µM (inactive) | > 100 µM (inactive) | > 100 µM (inactive) | > 100 µM (inactive) | > 100 µM (inactive) | > 100 µM (inactive) | > 100 µM (inactive) | > 100 µM (inactive) | 
O=[N+]([O-])c1ccc(Cl)cc1N/N=C/c1ccnc2ccccc12 | > 100 µM (inactive) | > 100 µM (inactive) | > 100 µM (inactive) | 46.5 µM (inactive) | > 100 µM (inactive) | > 100 µM (inactive) | 22.8 µM (inactive) | > 100 µM (inactive) | > 100 µM (inactive) | > 100 µM (inactive) | > 100 µM (inactive) | > 100 µM (inactive) | 97.3 µM (inactive) | > 100 µM (inactive) | > 100 µM (inactive) | 31.1 µM (inactive) | > 100 µM (inactive) | > 100 µM (inactive) | 
CCOC1CC(C)N(C(=O)c2ccccc2)O1 (centres undefined) | > 100 µM (inactive) |  | > 100 µM (inactive) | > 100 µM (inactive) | > 100 µM (inactive) | > 100 µM (inactive) | > 100 µM (inactive) | > 100 µM (inactive) | > 100 µM (inactive) | > 100 µM (inactive) | > 100 µM (inactive) | > 100 µM (inactive) | > 100 µM (inactive) | > 100 µM (inactive) | > 100 µM (inactive) |  | > 100 µM (inactive) | > 100 µM (inactive) | 
O=C(NCCN1CCCCC1)c1ccc(I)cc1 | > 100 µM (inactive) | > 100 µM (inactive) | 69.3 µM (inactive) | > 100 µM (inactive) | > 100 µM (inactive) |  | > 100 µM (inactive) | > 100 µM (inactive) | > 100 µM (inactive) | > 100 µM (inactive) | > 100 µM (inactive) | > 100 µM (inactive) | > 100 µM (inactive) | > 100 µM (inactive) | > 100 µM (inactive) | 89.3 µM (inactive) | 33.9 µM (inactive) | > 100 µM (inactive) | > 100 µM (inactive)
O=C1Cc2c([nH]c3ccc(Br)cc23)-c2cc(O)c(O)cc2N1 | > 100 µM (inactive) | > 100 µM (inactive) | > 100 µM (inactive) | > 100 µM (inactive) | > 100 µM (inactive) |  | > 100 µM (inactive) | > 100 µM (inactive) | > 100 µM (inactive) | > 100 µM (inactive) | > 100 µM (inactive) | 71.8 µM (inactive) | > 100 µM (inactive) | > 100 µM (inactive) |  | > 100 µM (inactive) |  | > 100 µM (inactive) | > 100 µM (inactive)
Cc1ccc2nc3[nH]nc(N)c3nc2c1 | > 100 µM (inactive) | > 100 µM (inactive) | > 100 µM (inactive) | > 100 µM (inactive) | 51.1 µM (inactive) |  | 20.9 µM (inactive) | > 100 µM (inactive) | > 100 µM (inactive) | > 100 µM (inactive) | > 100 µM (inactive) | 68.5 µM (inactive) | > 100 µM (inactive) | > 100 µM (inactive) | 37 µM (inactive) | 64 µM (inactive) | > 100 µM (inactive) | > 100 µM (inactive) | > 100 µM (inactive)
COc1cc2c(cc1OCCN1C(=O)c3cccc4cccc(c34)C1=O)N=C[C@@H]1CCCN1C2=O | 8.65 µM (inactive) | 9.44 µM (inactive) | 8.89 µM (inactive) | 8.57 µM (inactive) | 8.02 µM (inactive) |  | 9.68 µM (inactive) | 7.66 µM (inactive) | 7.41 µM (inactive) | 7.74 µM (inactive) | 6.59 µM (inactive) | 1.01 µM (active) | 10.7 µM (inactive) | 7.93 µM (inactive) | 3.11 µM (inactive) | 13.3 µM (inactive) | 8.61 µM (inactive) | 7.74 µM (inactive) | 6.04 µM (inactive)
CC(=O)Nc1ccc(/N=C2\C(c3ccccc3)=C(SC3=C(c4ccccc4)/C(=N\c4ccc(NC(C)=O)cc4)c4ccccc43)c3ccccc32)cc1 | 37.2 µM (inactive) | 46 µM (inactive) | 37.8 µM (inactive) | 29.6 µM (inactive) | 32.8 µM (inactive) |  | 34.5 µM (inactive) | 40.2 µM (inactive) | 50.8 µM (inactive) | 33.8 µM (inactive) | 27.4 µM (inactive) | 21.6 µM (inactive) | 26.5 µM (inactive) | 61.2 µM (inactive) | 32.1 µM (inactive) | 23.2 µM (inactive) | 15.8 µM (inactive) | 26.7 µM (inactive) | 28.8 µM (inactive)
CCCCn1c2c(c3ccccc3c1=O)C(=O)c1ccccc1-2 | 25 µM (inactive) | > 100 µM (inactive) | 34.5 µM (inactive) | > 100 µM (inactive) | > 100 µM (inactive) | 4.28 µM (inactive) | > 100 µM (inactive) | > 100 µM (inactive) | 94 µM (inactive) | 29 µM (inactive) | 15 µM (inactive) |  | > 100 µM (inactive) | > 100 µM (inactive) | 76.7 µM (inactive) | 37.2 µM (inactive) | 5.98 µM (inactive) |  | > 100 µM (inactive)
